# Experiments:
# Assay type in all cases: cell-based, human
# WNT signaling pathway = test: Blocking WNT signaling with IWR-1 in PMA-activated PBMCs, IFNγ expression; details: 10 μM IWR-1, 200 nM PMA
# Description: To investigate whether WNT10B was directly responsible for the upregulation of IFNγ expression, the WNT signaling pathway was blocked using an inhibitor of WNT response-1 (IWR-1, Sigma-Aldrich, St. Louis, Mo., cat # I0161). IWR-1 inhibits WNT signaling by stabilizing AXIN1 and prevents its degradation. AXIN1 is an inhibitor of WNT signaling pathway30. PBMCs (2×106) from healthy controls were cultured overnight (˜18 hours) with 10 LM of IWR-1 in separate wells of a 96-well culture plate in 200 μl complete RPMI medium. The following day, PMA and IWR-1 (in a 10 μl volume) were added to the culture to reach a final concentration of 200 nM PMA and 10 μM IWR-1, respectively. After 6 hours, WNT10B was added to the designated wells. Cells were harvested after 24 and 48 hours of adding WNT10B for total RNA extraction. Culture supernatant was collected for ELISA. ELISA for human IFNγ was performed on culture supernatants. The kit for ELISA was purchased from BioLegend Inc. (CA, USA) and assay was performed following the manufacturer's instructions. Reading for OD was performed in a Victor2TM, 1420 Multilabel Counter (Perkin Elmer, USA) plate reader.
# WNT10B = test: Micro-RNA mimic assay: transfection of THP1 cells, WNT10B mRNA (qRT-PCR) and protein (western blot); details: 5 pmol per well mimic
# Description: THP1 cells obtained from ATCC were cultured in complete RPMI medium containing 10% FBS, penicillin, and streptomycin, HEPES buffer and 2-mercaptoethanol. The incubation condition was at 37° C. and 5% CO2.
# To investigate whether hsa-miR-7113-5p regulated expression of WNT10B, miRNA mimic transfection studies were performed in THP1 cells. Mimics and inhibitors of the miRNA were obtained from Qiagen Inc. and transfected into the cells by employing Lipofectamine RNAiMAX (Invitrogen, ThermoFisher Scientific, USA). One day prior to transfection, 2×10^5 THP1 cells were plated in a 24-well plate in 5001l complete RPMI medium. Mimic, inhibitor, and scrambled oligos were then added at an amount of 5 pmol per well. Cells were cultured for the indicated time after transfection and harvested for RNA and protein isolation. RNA samples were used for qRT-PCR based quantification of mRNAs and miRNAs. Whole-cell lysates were used for western blot analysis of miRNA target protein.
# For the Western blot, anti-human-WNT10B was purchased from SIGMA-ALDRICH (cat # PRS4619). […] The total protein was not pre-quantified for loading onto the SDS-PAGE as the protein amount was to be normalized using an internal control. […] Protein bands were detected in a LI-COR blot detection system (Li-Cor Inc, Nebraska, USA).
# PBMCs = test: WNT10B signaling pathway initiation: rh-WNT10B added to PBMC cultures, proinflammatory gene expression and IFNγ ELISA; details: for expression of IFNγ at mRNA level / expression of Tbx-21 at mRNA level: vs un-activated PBMCs or PMA activated PBMCs without rh-WNT10B
# Description: To analyze whether WNT 10B could influence the expression of proinflammatory genes, WNT signaling was initiated by adding recombinant human (rh)-WNT10B in PBMCs cultures. The PBMCs were isolated from healthy human individuals. Two million cells were cultured in 200 μl medium in a 96-well tissue culture plates as follows: First, the PBMCs were stimulated with Phorbol 12-myristate 13-acetate (PMA) (200 nM) for 6 hours following which, 200 ng/ml rh-WNT10B was added. Then, the PBMCs were harvested after 24 and 48 hours and used for RNA and whole cell lysate (WCL) extraction for further analysis. The culture supernatants were also collected for ELISA to detect IFNγ. The following combinations were used as controls: 1) PBMCs+PMA without WNT10B and 2) PBMCs+WNT10B without PMA.
# Before activation of cells and to see whether pre-exposure of cells to WNT10B can influence inflammatory gene expression, WNT10B (200 ng/ml) was first added in all the culture with PBMCs. After 24 hours, PMA (200 nM) was added to activate the cells. The following condition was used for the control: PBMCs+WNT10B without PMA. The cells were then harvested 24 hours after addition of PMA.
# To test if chronic presence of WNT 10B alone (without stimulation with PMA) can lead to increased expression of inflammatory genes in the PBMCs, PBMCs (2×10^6 cells/well, in 200 μl, in a 96-well plate) were cultured with rh-WNT10B (200 ng/ml) for 96 hours. Additional rh-WNT10B was added after every 24 hours of culture. Cells were harvested every 24 hours for RNA and whole-cell lysate isolation. Supernatants were also collected for performing ELISA.
# ELISA for human IFNγ was performed on culture supernatants. The kit for ELISA was purchased from BioLegend Inc. (CA, USA) and assay was performed following the manufacturer's instructions. Reading for OD was performed in a Victor2TM, 1420 Multilabel Counter (Perkin Elmer, USA) plate reader.
# [1] = PMA (200 nM) activated PBMCs, 200 ng/ml rh-WNT10B, 24 hours
# [2] = PMA (200 nM) activated PBMCs, 200 ng/ml rh-WNT10B, 48 hours
compound,measurement,setting,value
"O=C(Nc1cccc2cccnc12)c1ccc(N2C(=O)C3C(C2=O)[C@H]2C=C[C@@H]3C2)cc1 (stereo partly shown) [IWR-1, 4-(1,3,3a,4,7,7a-Hexahydro-1,3-dioxo-4,7-methano-2H-isoindol-2-yl)-N-8-quinolinyl-benzamide]",expression of IFNγ and other proinflammatory genes upon addition of WNT10B,WNT signaling pathway; WNT10B added after 6 hours,did not lead to increased expression
same,expression of IFNγ,WNT signaling pathway; compared to cells activated with PMA only,significantly downregulated
"mimics of hsa-miR-7113-5p: Mimic of miRNA hsa-miR-7113-5p (UCCAGGGAGACAGUGUGUGAG, SEQ ID NO: 2) obtained from Qiagen Inc. (listed as RNA, chemistry not given here; listed as Homo sapiens)",level of WNT10B mRNA,"WNT10B; qRT-PCR, compared to scrambled miRNA and miRNA-7113-5p-inhibitor treated groups",Significant reduction
same,level of WNT10B protein,"WNT10B; western blot of whole-cell lysate after 72 hours, compared to scrambled miRNA and inhibitor groups",Significant reduction
rh-WNT10B: recombinant human (rh)-WNT10B added to PBMC cultures to initiate WNT signaling,protein level of IFNγ,"PBMCs; PMA (200 nM) activated PBMCs, 200 ng/ml rh-WNT10B, 24 hours, ELISA on culture supernatant",significant increase
same,expression of IFNγ at mRNA level,PBMCs; [1],significant increase
same,expression of Tbx-21 at mRNA level,PBMCs; [1],significant increase
same,expression of IFNγ at mRNA level,PBMCs; [2],significant increase
same,expression of Tbx-21 at mRNA level,PBMCs; [2],significant increase
same,"induction of inflammatory genes, including STAT3, STAT4, or IFNγ","PBMCs; rh-WNT10B (200 and 500 ng/ml) alone added to naïve PBMCs, without PMA",did not induce any inflammatory genes

# Source: patent US20200254020A1, “Methods and Compositions for Modulating the WNT-Signaling Pathway as Treatments for Inflammatory Diseases” (UNIVERSITY OF SOUTH CAROLINA, priority 2019, published 2020)
